Data published in ChEMBL document CHEMBL5120911, “Suncheonosides E-M and Benzothioate Derivatives from the Marine-Derived Streptomyces sp. ZSN77” (J Nat Prod, 2022).
Counter-ions that a name gives are not always drawn.

Assays:
Type in all cases: functional, cell-based
MDA-MB-231 = assay: Cytotoxicity against human MDA-MB-231 cells assessed as reduction in cell viability incubated for 72 hrs by SRB assay; conditions: MDA-MB-231, 72 h
PC-3 = assay: Cytotoxicity against human PC-3 cells assessed as reduction in cell viability incubated for 72 hrs by SRB assay; conditions: PC-3, 72 h
HCT-116 = assay: Cytotoxicity against human HCT-116 cells assessed as reduction in cell viability incubated for 72 hrs by SRB assay; conditions: HCT-116, 72 h
BV-2 = assay: Antiinflammatory activity in mouse BV-2 cells assessed as inhibition of LPS-induced NO production pretreated for 3 hrs followed by LPS stimulation measured after 24 hrs by microplate reader assay; conditions: dose 2.5-10 µM, time 27.0 hrs, DDE = dose-dependent effect

## Cc1c(O)cc(C(C)C)c(C)c1O
MDA-MB-231
  IC50: > 40 µM
PC-3
  IC50: > 40 µM
HCT-116
  IC50: > 40 µM

## CCc1c(C)c(O)c(C)c(O)c1C(=O)SC
MDA-MB-231
  IC50: > 40 µM
PC-3
  IC50: > 40 µM
HCT-116
  IC50: > 40 µM

## CSC(=O)c1c(O[C@@H]2O[C@H](CO)[C@@H](O)[C@H](O)[C@H]2O)c(C)c(OC(=O)c2c(O)c(C)c(O)c(C)c2C(C)C)c(C)c1C(C)C
MDA-MB-231
  IC50: 11 µM
HCT-116
  IC50: > 40 µM

## CSC(=O)c1c(C)c(C)c(O)c(C)c1O[C@@H]1O[C@H](CO)[C@@H](O)[C@H](O)[C@H]1O
MDA-MB-231
  IC50: > 40 µM
PC-3
  IC50: > 40 µM
HCT-116
  IC50: > 40 µM

## COc1cccc2c1C(=O)c1c(O)c3c(c(O)c1C2=O)C[C@@](O)(C(=O)CO)C[C@@H]3O[C@H]1C[C@H](N)[C@H](O)[C@H](C)O1 [DOXORUBICIN HYDROCHLORIDE]
MDA-MB-231
  IC50: 0.4 µM
PC-3
  IC50: 0.4 µM

## CCc1c(C)c(O)c(C)c(O[C@@H]2O[C@H](COC(C)=O)[C@@H](O)[C@H](O)[C@H]2O)c1C(=O)SC
MDA-MB-231
  IC50: 16 µM
HCT-116
  IC50: > 40 µM

## CSC(=O)c1c(C(C)C)cc(O)c(C)c1O[C@@H]1O[C@H](CO)[C@@H](O)[C@H](O)[C@H]1O
MDA-MB-231
  IC50: > 40 µM
PC-3
  IC50: > 40 µM
HCT-116
  IC50: > 40 µM

## CSC(=O)c1c(O)c(C)c(O)c(C)c1C(C)C
MDA-MB-231
  IC50: > 40 µM
HCT-116
  IC50: 3.9 µM
BV-2
  Activity: Dde

## CCc1c(C)c(O)c(C)c(O[C@@H]2O[C@H](CO)[C@@H](O)[C@H](O)[C@H]2O)c1C(=O)SC
MDA-MB-231
  IC50: > 40 µM
PC-3
  IC50: > 40 µM
HCT-116
  IC50: > 40 µM
BV-2
  Activity: Dde

## CSC(=O)c1c(O[C@@H]2O[C@H](CO)[C@@H](O)[C@H](O)[C@H]2O)c(C)c(O)c(C)c1C(C)C
MDA-MB-231
  IC50: > 40 µM
PC-3
  IC50: > 40 µM
HCT-116
  IC50: > 40 µM
BV-2
  Activity: Dde

## COc1c(C)c(O)c(C)c(C(C)C)c1C(=O)SC
MDA-MB-231
  IC50: 36 µM
PC-3
  IC50: > 40 µM
HCT-116
  IC50: > 40 µM
BV-2
  Activity: Dde

## Cc1c(O)c(C)c(C(C)C)c(O[C@@H]2O[C@H](CO)[C@@H](O)[C@H](O)[C@H]2O)c1O
MDA-MB-231
  IC50: > 40 µM
PC-3
  IC50: 4.1 µM
HCT-116
  IC50: > 40 µM
BV-2
  Activity: Dde

## COC(=O)c1c(O)c(C)c(O)c(C)c1C(C)C
MDA-MB-231
  IC50: > 40 µM
PC-3
  IC50: > 40 µM
HCT-116
  IC50: 7.3 µM

## CCc1c(O)c(C)c(O[C@@H]2O[C@H](CO)[C@@H](O)[C@H](O)[C@H]2O)c(C(=O)SC)c1C(C)C
MDA-MB-231
  IC50: > 40 µM
PC-3
  IC50: > 40 µM
HCT-116
  IC50: > 40 µM

## CSC(=O)c1c(O[C@@H]2O[C@H](COC(C)=O)[C@@H](O)[C@H](O)[C@H]2O)c(C)c(O)c(C)c1C(C)C
MDA-MB-231
  IC50: > 40 µM
HCT-116
  IC50: > 40 µM
